Assay results reported in PMC12495443, “Developing inhibitors of the guanosine triphosphate hydrolysis accelerating activity of Regulator of G protein Signaling-14 [drawing 1]” (The Journal of Biological Chemistry, 2025).
Residue numbers refer to the chain shown, from its start. Entries after “also recorded” stand apart in the source; their conditions may differ. Like-named read-outs stand apart in the source and are kept apart here.

Experiments:
[1] = target: T1, human RGS14 RGS-box (wild-type) (Homo sapiens, UniProt O43566); test: Transcreener GDP RGScreen fluorescence polarization assay of RGS14 RGS-box GAP activity on Gαi1(DM); format: biochemical; conditions: for Ratio (RGS14 pIC50 / RGS12 pIC50): values > 1.0 reflect RGS14 selectivity; for IC50: Transcreener GDP RGScreen
T1 construct: human RGS14 RGS-box (aa 46–195 of UniProt O43566); host or cells: E. coli
T1 sequence (O43566 46-195): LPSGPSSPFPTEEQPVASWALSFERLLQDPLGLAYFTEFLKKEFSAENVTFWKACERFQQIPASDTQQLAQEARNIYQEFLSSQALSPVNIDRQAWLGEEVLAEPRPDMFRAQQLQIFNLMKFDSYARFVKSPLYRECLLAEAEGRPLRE
Description: (§1) We previously described work with BellBrook Labs creating the Transcreener GDP RGScreen fluorescence polarization assay of steady-state GTP hydrolysis, leveraging a double point-mutant in the Gα enzyme to make GTP hydrolysis, rather than GDP (product) release, the rate-limiting step for multiple rounds of GTP conversion ([57], [59]). […] Titrating inputs of the double point-mutant (“DM”) Gαi1 and RGS-box recombinant proteins (Fig. S2, B and C) established a robust, medium-throughput assay for evaluating potential RGS14 and RGS12 inhibitors, with “assay quality” Z′ scores ([60]) above 0.76 for each target (Fig. S2D).
(§2) Reagents and protocols for the fluorescence anisotropy-based Transcreener GDP RGScreen assay using a rate-altered, double point-mutant, recombinant Gαi1 protein have been extensively described previously ([43], [44]); reactions were always performed so that total GTP converted over the time course was consistently less than 10% of reaction maximum input. Specific methods for its application in assessing RGS14 and RGS12 GAP activity are summarized as follows. Open-reading frames (ORFs) encoding wild-type versions of the human RGS14 RGS-box (aa 46–195 of UniProt O43566) and human RGS12 RGS-box (aa 695–843 of UniProt O14924) were each sub-cloned in-frame with an N-terminal hexahistidine (His6) expression tag in the plasmid pET30a, expressed in E. coli cultures, and then purified by nickel-nitriloacetate (Ni-NTA) and size-exclusion (Superdex 200) column chromatographies by GenScript using previously described methods ([35]). These recombinant His6-tag fusion proteins were stored at −80 °C in storage buffer (150 mM NaCl, 50 mM Tris-HCl pH 8.0, 10% glycerol) before thawing and use. Cysteine-less versions were similarly produced by ORF site-directed mutagenesis: for RGS14, codons for cysteine residues 47 and 130 (numbered as in PDB id 2JNU) were replaced with serine codons; for RGS12, codons for cysteines 4, 51, 78, and 134 (numbered in relation to PDB id 2EBZ) were replaced with serine codons. Use of Transcreener GDP-detection reagents to assess compound inhibition of Naegleria fowleri Gα7 protein GTPase activity ([83]) has previously been described ([84]).

[2] = target: T2, human RGS12 RGS-box (wild-type) (Homo sapiens, UniProt O14924); test: Transcreener GDP RGScreen fluorescence polarization assay of RGS12 RGS-box GAP activity on Gαi1(DM); format: biochemical; conditions: wild-type RGS12 RGS-box GAP activity, Gαi1(DM), read-out: RGS12 pIC50 (converted)
T2 construct: human RGS12 RGS-box (aa 695–843 of UniProt O14924); host or cells: E. coli
T2 sequence (O14924 695-843): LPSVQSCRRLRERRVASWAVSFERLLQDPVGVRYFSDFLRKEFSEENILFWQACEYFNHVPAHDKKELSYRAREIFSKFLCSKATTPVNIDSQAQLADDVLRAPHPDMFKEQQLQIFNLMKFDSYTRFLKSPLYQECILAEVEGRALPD
Description: as §1, §2

THP-1 cell line = test: Cytotoxicity assays (CytoTox-Glo, CytoTox 96); format: cell-based; conditions: THP-1 cells, overnight, CytoTox-Glo and CytoTox 96
Description: To evaluate cellular toxicity of active compounds, we employed the immortalized human monocytic THP1-Dual cell line (InvivoGen) in two orthogonal cytotoxicity assays: ATP-dependent luminescence (CytoTox-Glo) and colorimetric lactate dehydrogenase (LDH) release (CytoTox 96). For each assay, compounds were serially diluted 2-fold starting at 250 μM and added to 96-well flat-bottom tissue culture plates (Thermo Scientific Nunc, Cat# 165306). THP1-Dual cells were then seeded at 20,000 to 30,000 cells per well in 100 μl RPMI 1640 media supplemented with 10% fetal bovine serum (Gibco). Plates were gently mixed and incubated overnight at 37 °C in a humidified 5% CO2 incubator. For the CytoTox-Glo assay (Promega, Cat# G9291), 50 μl of assay reagent was added to each well. Plates were mixed briefly, sealed, and incubated at room temperature for 15 min before reading luminescence on a TECAN Infinite M1000 Pro plate reader to quantify dead-cell signal. Subsequently, 50 μl of a digitonin-containing lysis solution was added to each well, followed by a second luminescence read after 15 min to assess total cell content. Percent cytotoxicity was calculated per manufacturer instructions. For the CytoTox 96 Non-Radioactive Cytotoxicity Assay (Promega, Cat# G1780), after overnight compound treatment, LDH release into the culture medium was measured by adding the provided substrate mix. Absorbance was read at 490 or 492 nm within 1 h of adding the stop solution. Assay optimization and data normalization were conducted according to the manufacturer’s technical manual.

[3] = Single-dose pharmacokinetic study, plasma and brain by LC-MS/MS; format: in vivo, male Swiss-Webster mice
Description: Single-dose pharmacokinetic (PK) studies were conducted under IACUC-approved protocols of the UNTSCP Preclinical Services laboratory at the University of North Texas Health Science Center. Male Swiss-Webster (CFW) mice (∼30 g; Charles River) were used in both studies, housed in groups of three per cage with ad libitum access to food and water and acclimated for a minimum of 3 days prior to dosing. Each compound was evaluated in a single-dose, time-course design using three mice per time point across seven collection points (0.25, 0.5, 1, 2, 4, 8, and 24 h post-dose). For Z56944652, mice received a single intraperitoneal (IP) dose of 10 mg/kg (0.2 ml at 1.5 mg/ml). At each designated time point, mice were euthanized via CO2 inhalation, and blood was collected by cardiac puncture for plasma isolation (K2-EDTA tubes). Brains were aseptically removed, flash-frozen, and stored at −80 °C. For Z55628018, due to poor detection in preliminary studies, the protocol was modified to enhance systemic exposure. Mice were pre-dosed orally with 50 mg/kg of the pan-CYP inhibitor 1-aminobenzotriazole (ABT; ref. ([67])) 2 h prior to administration of Z55628018. The compound was then administered via IP injection at a single dose of 30 mg/kg (0.2 ml at […]). Sample collection and processing procedures were identical to those described above for Z56944652.
LC-MS/MS analyses were performed at UNTHSC using an Agilent 1260 Infinity HPLC system coupled to an Agilent 6460 Triple Quadrupole mass spectrometer equipped with Jet Stream electrospray ionization (ESI) in positive ion mode. Separation was carried out on a Poroshell 120 EC-C18 column (50 × 3.0 mm, 2.7 μm particle size) maintained at 30 °C, with a mobile phase consisting of 0.1% formic acid in water (A) and 0.1% formic acid in acetonitrile (B) under a standard gradient elution at a flow rate of 0.5 ml/min. The injection volume was 2 μl. Multiple reaction monitoring (MRM) transitions were optimized for each compound: Z56944652 was detected at m/z 353.1 → 227/132/126, and Z55628018 at m/z 391 → 134.8/247.9/132/121. The internal standard, carbamazepine, was monitored at m/z 237.2 → 167. Plasma samples (30–40 μl) were extracted with 1000 to 1200 μl of either acetonitrile or a 50:50 acetonitrile:methanol mixture containing carbamazepine (150–500 ng/ml), followed by vortexing, sonication, centrifugation, and supernatant collection for injection. Brain samples were homogenized in organic solvent (2 ml per 0.5 g tissue), vortexed, centrifuged, and processed using the same analytical workflow. Matrix-matched calibration curves were prepared using blank plasma or brain extract and validated over appropriate dynamic ranges: 0.09 to 46 μg/ml (plasma) and 0.547 to 70 ng/ml (brain) for Z56944652; 0.1 to 12.5 μg/ml (plasma) and 0.1 to 3.13 ng/ml (brain) for Z55628018. […] Retention times were 5.0 ± 0.01 min for Z56944652 and 3.3 ± 0.01 min for Z55628018, with the internal standard eluting at 4.0 ± 0.02 min.

[4] = target: T3, cysteine-less RGS14 RGS-box protein (Homo sapiens, UniProt O43566, C100S/C183S); test: Transcreener GDP RGScreen assay with cysteine-less RGS14 RGS-box; format: biochemical; conditions: compared with wild-type RGS14 RGS-box
T3 construct: human RGS14 RGS-box (aa 46–195 of UniProt O43566); host or cells: E. coli
T3 sequence (O43566 46-195 C100S/C183S): T1 sequence (O43566 46-195) with C55S, C138S
Description: Given the earlier experience with screening hit CCG-4986 being a covalent modifier of RGS4 cysteine residues ([35]), we sought to exclude protein-thiol reactivity as a potential mechanism of action of the active compounds derived from the AtomNet virtual screening effort ([55]) and SAR campaign follow-ups. To address this possibility and screen out thiol-reactive hits, cysteine-lacking versions of recombinant proteins spanning the RGS-boxes of RGS14 and RGS12 were purified from E. coli cultures.
Reagents and protocols for the fluorescence anisotropy-based Transcreener GDP RGScreen assay using a rate-altered, double point-mutant, recombinant Gαi1 protein have been extensively described previously ([43], [44]); reactions were always performed so that total GTP converted over the time course was consistently less than 10% of reaction maximum input. Specific methods for its application in assessing RGS14 and RGS12 GAP activity are summarized as follows. Open-reading frames (ORFs) encoding wild-type versions of the human RGS14 RGS-box (aa 46–195 of UniProt O43566) and human RGS12 RGS-box (aa 695–843 of UniProt O14924) were each sub-cloned in-frame with an N-terminal hexahistidine (His6) expression tag in the plasmid pET30a, expressed in E. coli cultures, and then purified by nickel-nitriloacetate (Ni-NTA) and size-exclusion (Superdex 200) column chromatographies by GenScript using previously described methods ([35]). […]
Supplementary Figure S5. […] (A,B) Recombinant, cysteine residue-lacking (“-cys”) RGS14 RGS-box protein (panel A) and cysteine residue-lacking RGS12 RGS-box protein ([…]) were both observed, in a concentration-dependent fashion (indicated in ng/µL by color), to increase steady-state GDP production by 0.5 ng/µL Gai1(DM) protein in a 20 µL final reaction volume, as measured by the Transcreener® GDP-detection RGScreen™ assay and detected by the change in polarization (ΔmP) at each indicated time point (“enz” = Gai1(DM) protein a.k.a. […]

[5] = wild-type RGS14 RGS-box GAP activity, Gαi1(DM), read-out: RGS14 pIC50 (converted)

| SMILES | Ratio (RGS14 pIC50 / RGS12 pIC50) [1] | IC50 [1, 5] [µM] | IC50 [2] [µM] | cytotoxicity (THP-1 cell line) | brain tissue concentration ([3]; 30 mg/kg IP after 50 mg/kg oral 1-aminobenzotriazole, any time point) | concentration at 1 h ([3]; male, Swiss-Webster (CFW), mouse, plasma, intraperitoneal, 30 mg/kg IP after 50 mg/kg oral 1-aminobenzotriazole, one of three mice, 1-h time point) [ng/mL] | time of peak brain level ([3]; 10 mg/kg IP single dose, mice) [h] | peak brain level ([3]; 10 mg/kg IP single dose, mice, 1 h post-dose) [ng/g tissue] | peak CNS level (mean ± SD) ([3]; 10 mg/kg IP, three Swiss Webster mice, at 1 h) [ng/gram brain tissue] | Kp ([3]; male, Swiss-Webster (CFW), mouse, brain, 10 mg/kg IP, throughout the measured time course, read-out: brain-to-plasma concentration ratio (Kp)) | IC50 ([1]; wild-type RGS14 RGS-box, read-out: IC50 against RGS14 RGS-box GAP activity) [µM] | inhibitory activity on cysteine-free RGS14 RGS-box (in words) [4] |
| --- | --- | --- | --- | --- | --- | --- | --- | --- | --- | --- | --- | --- |
| C1=C(c2cc3ccccc3o2)Nn2c(nnc2C2COc3ccccc3O2)S1 (stereo not shown) [Z55628018, 6-(1-benzofuran-2-yl)-3-(2,3-dihydro-1,4-benzodioxin-2-yl)-5H-[1,2,4]triazolo[3,4-b][1,3,4]thiadiazine] | 0.92 | 14.5 | 5.75 | Neither triazolothiadiazine derivative was observed to induce significant cell death | No measurable concentrations; also recorded: undetectable | 170 | – | – | – | – | – | – |
| COc1ccccc1C1=CSc2nnc(COc3ccccc3)n2N1 [Z56944652, 6-(2-methoxyphenyl)-3-(phenoxymethyl)-5H-[1,2,4]triazolo[3,4-b][1,3,4]thiadiazine] | 0.86 | 19.1 | 3.39 | Neither triazolothiadiazine derivative was observed to induce significant cell death | – | – | 1 | ~20 | 19.5 ± 0.3 | ~1 | – | – |
| CN1C(=O)[C@@]23C[C@]4([C@]56C[C@@]78SS[C@@](CO)(C(=O)N7[C@H]5Nc5ccccc56)N(C)C8=O)c5ccccc5N[C@@H]4N2C(=O)[C@]1(CO)SS3 [chaetocin, reference compound] | – | – | – | – | – | – | – | – | – | – | 0.32 | largely lost |
